From paper PMC10770617, “27-Hydroxylation of oncosterone by CYP27A1 switches its activity from pro-tumor to anti-tumor” (Journal of Lipid Research, 2023)
pKi: −log10 of the molar value.

Legend:
[1] = biological target: T1, HSD2 (11β-hydroxysteroid dehydrogenase type 2) (Homo sapiens, UniProt P80365); test: inhibition of […]-CT to […]-OCDO conversion in HSD2-transfected HEK-293T lysate (TLC), Lineweaver-Burk and Dixon analysis; type: biochemical
T1 construct: gene HSD11B2; recombinant HSD2 (pCMV6-XL5 HSD2, SC122552) in HEK-293T cell lysate
T1 sequence (P80365 1-405): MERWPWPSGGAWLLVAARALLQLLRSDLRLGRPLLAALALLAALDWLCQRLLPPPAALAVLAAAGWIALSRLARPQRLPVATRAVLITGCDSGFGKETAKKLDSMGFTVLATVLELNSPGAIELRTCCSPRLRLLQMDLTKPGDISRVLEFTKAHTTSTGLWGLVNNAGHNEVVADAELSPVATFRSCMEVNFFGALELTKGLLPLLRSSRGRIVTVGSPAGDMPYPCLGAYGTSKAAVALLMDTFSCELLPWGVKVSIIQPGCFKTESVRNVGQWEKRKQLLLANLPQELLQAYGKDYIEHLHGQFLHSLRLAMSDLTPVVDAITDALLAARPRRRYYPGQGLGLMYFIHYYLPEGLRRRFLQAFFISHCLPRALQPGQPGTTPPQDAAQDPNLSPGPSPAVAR

CYP27A1 = biological target: T2, CYP27A1 (Homo sapiens, UniProt Q02318); test: inhibition of 27-hydroxylation of […]-CT in cells at […] (TLC); about […] (MDA-231) and […] (HepG2) reduction; type: cell-based
T2 construct: endogenous, MDA-231 and HepG2 cells
T2 sequence (Q02318 34-531): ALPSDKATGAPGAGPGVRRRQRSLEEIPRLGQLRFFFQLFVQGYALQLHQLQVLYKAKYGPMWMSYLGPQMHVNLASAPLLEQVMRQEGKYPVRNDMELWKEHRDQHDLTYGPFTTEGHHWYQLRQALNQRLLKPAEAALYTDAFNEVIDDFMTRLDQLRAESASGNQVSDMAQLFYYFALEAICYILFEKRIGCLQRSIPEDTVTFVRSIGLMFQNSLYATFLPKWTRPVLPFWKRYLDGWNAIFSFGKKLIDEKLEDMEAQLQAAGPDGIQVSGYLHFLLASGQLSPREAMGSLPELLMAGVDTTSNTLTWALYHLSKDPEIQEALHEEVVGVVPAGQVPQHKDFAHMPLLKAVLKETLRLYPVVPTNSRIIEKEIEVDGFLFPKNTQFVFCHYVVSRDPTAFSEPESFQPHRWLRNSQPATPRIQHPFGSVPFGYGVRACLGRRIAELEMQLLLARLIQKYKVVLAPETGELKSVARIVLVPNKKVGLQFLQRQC

| SMILES | pKi [1] | inhibition at 10 µM (CYP27A1) [%] |
| --- | --- | --- |
| C[C@@H](CO)CCC[C@@H](C)[C@H]1CC[C@H]2[C@@H]3C[C@@H](O)[C@@]4(O)C[C@@H](O)CC[C@]4(C)[C@H]3CC[C@]12C [27H-CT, (25R)-cholestane-3β,5α,6β,26-tetrol] | 5.64 |  |
| CC(O)(CS(=O)(=O)c1ccc(F)cc1)C(=O)Nc1ccc(C#N)c(C(F)(F)F)c1 (centres unmarked) [bicalutamide] |  | ~60 |
